Assays:
[1] = tested on: TNF-α; test: TNF-α secretion in LPS-stimulated RAW 264.7 cells (ELISA); format: cell-based, mouse; conditions: sample at IC20 value; vs dexamethasone 1 μg/mL; LPS 1 μg/mL
Description: Mouse monocyte macrophage RAW 264.7 cells (American Type Culture Collection, […]-71) were stimulated with lipopolysaccharide (LPS) or phytohemagglutinin (PHA). The LPS treated RAW 264.7 cells served as a vehicle control, of which the NO production, and the secreted cytokines were defined as 100%, whereas a negative control was non-treated RAW 264.7 cells. Dexamethasone (an anti-inflammatory drug) was used as a positive control. PBMCs (1 × 10^5 cells/well in RPMI-1640 for IL-2) and Raw cells (1 × 10^5 cells/well in DMEM for TNF-α) were seeded for 24 h in a CO2 incubator set at 37 °C and 5% CO2/95% humidified air. Then cells were treated with […] fractional extracts (IC20 value) or pure compounds (IC20 value), or dexamethasone (1 μg/mL) were added. […] After 24 h, the media were removed and centrifuged at 13,500 × g for 10 min and 100 μL of the supernatant was analysed by the protocol of R&D Systems, Minneapolis, MN, USA using ELISA technique. The absorbance was measured at 450 nm and corrected with the reference wavelength of 570 nm (Beckman CoulterDTX880, Fullerton, CA, USA). Viability of PBMCs and RAW 264.7 cells was also determined using MTT assay as described previously. IL-2 and TNF-α secretion inhibitions were calculated as bellow:4 %Cytokineinhibition=A-B/A×100 A is the optical density of the mixture without the sample, while B is the optical density of the mixture with the sample. […]

[2] = tested on: WT1 protein; test: WT1 protein expression by Western blot in K562 cells; format: cell-based, human; conditions: IC20 value, 48 h, vs vehicle control
Protocol: Leukaemic stem cells (KG-1a) and leukaemic cells (EoL-1 and K562) were used as cell models which overexpressed WT1 protein expression. Cells were treated with crude fractional extracts and active compounds at a 20% growth inhibition (IC20 value) of each extract. Following 48-h of incubation, cells were washed. The whole protein was extracted using RIPA buffer. The protein concentration was determined by the Pierce™ BCA Protein Assay Kit (ThermoFisher Scientific, IL, USA). Extracted protein sample at 30 − 50 μg was loaded to 12% SDS-PAGE and then transferred to PVDF membranes. The method was done as previously described. The specific protein bands were determined by Luminata™ Forte Western HRP substrate (Merck, Darmstadt, Germany) and exposed to X-ray film (Sakura, Japan). Quantity One 1-D Analysis software (Bio-Rad, USA) was used to quantify densitometry. The density values of WT1 bands were normalized to GAPDH bands.

SMILES | TNF-α inhibition [1] | suppression of WT1 protein expression in K562 cells [2]
O=c1c(O)c(-c2ccc(O)c(O)c2)oc2cc(O)cc(O)c12 [Quercetin, quercetin] | significantly more potent inhibition of IL-2, TNF-α, and NO than dexamethasone | –
Oc1ccc(/C=C/c2cc(O)cc(O)c2)cc1 [Resveratrol, resveratrol] | – | 53.78 ± 4.28%
